Our source for the melting point values is a melting point compilation (Tetko et al.; mined from patent text by program, amines drawn as free bases though some values may be those of a salt).

SMILES strings stand for the structures. Non-standard residues stand in square brackets, D forms with d. Residues, ends and D or L forms follow the SMILES beside them. ξ: configuration not given here. *: point of attachment. ξPhe(4-F) = NC(Cc1ccc(F)cc1)C(=O)O; Boc = CC(C)(C)OC(=O)*

`COc1ccc(-c2c(C)ncc(C#N)c2Nc2cccc3[nH]ccc23)cc1OC` showed a melting point of 182 to 183 °C.

Molecule `O=C(O)C1=C(C(=O)Nc2ccc(Cl)cc2F)CCCC1` registered a melting point of 91 to 93 °C.

The molecule `O=C(C1CC1)N1CCc2cc(S(=O)(=O)N3CCN(c4cccc(Cl)c4)CC3)ccc21` registered a melting point of 162 to 163 °C.

On to `C=CCNc1nc(SC)nc2cc(OC)c(OC)cc12`, for which the melting point is 122 to 124 °C.

On to `CCOC(=O)c1cn(Cc2ccccc2)nc1OCc1ccc(OCc2nc(-c3ccco3)oc2C)cc1`, for which the melting point fell in the range of 101 to 102 °C.

Molecule `O=C(O)c1cc(CC(C(=O)O)C(=O)O)c2ccccn2c1=O` returned a melting point above 250 °C.

Regarding `COc1cccc(-c2cnn3c(-c4cccc(NC(=O)CC(C)C)c4)ccnc23)c1`, the melting point fell in the range of 153 to 154 °C.

For the molecule `CC(C)c1cc(CO)cc(C(C)C)c1NC(=O)CN1CCN(CCSc2nc3cccc(C(F)(F)F)c3o2)CC1`, the melting point lay in the range of 146 to 148 °C.

The molecule `CN1c2ccccc2CCC1c1ccccc1` (centres undefined) registered a melting point of 99 to 101 °C.

For the molecule `CCc1cccc2c(/C=C/C(=O)N3CCCCC3)cc(OC)c(OCOC)c12`, the melting point fell in the range of 85 to 86 °C.

For `O=C(O)CCC(O)c1ccc(-c2ccccc2Cl)cc1` (centres undefined), the melting point was 90 to 95 °C.

With `CCC1(C2OC(C3OC(O)(CO)C(C)CC3C)CC2C)CCC(C2(C)CCC3(CC(O)C(C)C(C(C)C(OC)C(C)C(=O)O)O3)O2)O1` (centres undefined), the melting point lay within 78 to 80 °C.

For the molecule `CC(C)CCOc1ccc(-n2cc(C(=O)O)cn2)cc1C#N`, the melting point was in the range of 210 to 211 °C.

On to `O=C1Nc2cc(C(F)(F)F)cc(C(F)(F)F)c2C1(O)c1cc(Cl)ccc1O` (centres undefined), for which the melting point was 191 to 193 °C.

`Cc1csc(C(=O)C2C(=O)N(C(N)=O)c3cc(F)cnc32)c1` (centres undefined): the melting point was above 250 °C.

`COc1ccc(-c2ccc3c(c2)S(=O)(=O)NC(C2CCCCC2)N3)c(OC)c1` (centres undefined) registered a melting point of 208 to 213 °C.

Consider `CCOC(=O)c1cc2c(-c3ccc(C(F)(F)F)n(C)c3=O)c(F)cc(Cl)c2o1`, for which the melting point was 118 to 120 °C.

Turning to `CC(C)OC(=O)c1cc(F)c(Cl)cc1Cl`, the melting point came out at 35 °C.

Consider `CC(C)c1ccc(C2c3cc(N)ccc3OC2(C)C)cc1` (centres undefined), for which the melting point was 109 to 110 °C.

Molecule `CN1C(=O)CC[C@]2(C)c3ccc(Sc4ccccc4)cc3CC[C@@H]12` displayed a melting point of 109 to 112 °C.

Consider `COc1ccc(COc2ccc(C(=O)NC[C@@H](C(=O)NO)N3CCN(S(C)(=O)=O)CC3)cc2)cc1`, for which the melting point stood at 148 °C.

`CN(CC(=O)O)C(=O)C(C)(C)Oc1ccc(C(=O)c2ccc(Cl)cc2)cc1` yielded a melting point of 186 to 187 °C.

Molecule `O=C(O)CCCCCCC(=NOCc1ccc(OCc2noc(-c3ccccc3)n2)cc1)c1ccccc1` came in with a melting point of 76 to 77 °C.

On to `CS(=O)(=O)N[C@@H]1CCCC[C@H]1Nc1nc(Nc2ccc3c(c2)CCC(F)(F)CC3)ncc1Cl`, for which the melting point was 118 to 128 °C.

Regarding `O=c1ccc(-c2c(-c3ccccc3)nn3ccccc23)nn1C1CCCCC1=NO` (centres undefined), the melting point was in the range of 238 to 240 °C.

In the case of `COc1ccc(NC(=O)N(Cc2ccccc2)C2CCCCCC2)c(NC(=O)c2cc(C(C)(C)C)c(O)c(C(C)(C)C)c2)c1`, the melting point is 125 to 130 °C.

With `CC1SC(=O)NN=C1c1ccc2c(c1)C(=Cc1ccccc1O)C(=O)N2` (centres undefined), the melting point was 233 °C.

In turn, `Cc1c(-c2cccnc2)sc2nc(N)[nH]c(=O)c12` came in with a melting point of 280 to 290 °C.

`CCNC(=O)C(Cc1ccc(F)cc1)NC(=O)CNC(=O)OC(C)(C)C` (stereo not drawn) (Boc-Gly-[ξPhe(4-F)]-NHEt) displayed a melting point of 181 to 182 °C.

The molecule `CCOC(=O)CCSc1nnsc1-c1ccc(F)cc1` came in with a melting point of 76.5 to 77.5 °C.

For `COC(=O)c1ccc(-n2cccc2)cc1`, the melting point is 128 to 129 °C.

Molecule `CN1CCN(C2=C3CSCC34CC(=CC#N)C=CC4=NC=C2)CC1` (centres undefined) had a melting point of 90 to 92 °C.

The molecule `C[C@H](O)Cc1ncc[nH]1` showed a melting point of 119 to 121 °C.

Regarding `Cc1nc2ccccc2n1Cc1c(F)cccc1F`, the melting point stood at 99 °C.

On to `O=S(CCCn1cnc(-c2ccc(F)cc2)c1-c1ccncc1)c1ccccc1` (centres undefined), for which the melting point was 146 to 148 °C.

Molecule `CSc1ccc(C(N)=S)cc1` returned a melting point of 176 to 178 °C.

With `CCOC(=O)/C(=C\Nc1ccc(OC)c(OC)c1)c1ccc(OC)cc1`, the melting point fell in the range of 88 to 89 °C.

The molecule `CCCCc1nc2c(N)nc(C)c(C)c2n1CC(C)(C)NC(=O)NC1CCCCC1` showed a melting point of 128 to 130 °C.

Consider `O=c1cc(NCCCN2CCN(c3cccc4c3OCCO4)CC2)cn[nH]1`, for which the melting point lay in the range of 158 to 160 °C.

`c1ccc(C(CCOc2ccc(CCC3=NCCO3)cc2)(c2ccccc2)c2ccccc2)cc1`: the melting point was in the range of 130 to 131 °C.

Take `Cc1ccc(C(=O)C2=C(O)C(=O)N(c3ccc(C)nn3)C2c2ccc(OC3CCN(C)CC3)cc2)cc1` (centres undefined): the melting point was 259 to 260 °C.

On to `CC(=O)NCc1ccc2c(c1)CN(C1CCC(=O)NC1=O)C2=O` (centres undefined), for which the melting point lay in the range of 183 to 185 °C.

For `O=S1(=O)CS(=O)(=O)OCO1`, the melting point was determined as 146 °C.

`Cc1cc2c(-c3cccc(C(=O)O)c3)c(CC(=O)Nc3ccc(Cl)cc3C(F)(F)F)c(=O)oc2cc1Cl` registered a melting point of 270 to 272 °C.

With `Cc1nccn1-c1ccc(OCCO)cc1`, the melting point was in the range of 125 to 127 °C.

For `CC1(C)C(C(=O)O)C12C=CC=C2` (centres undefined), the melting point was in the range of 126 to 129 °C.

Regarding `NC(=O)c1ccc(-c2cc3cc(C4=NNC(=O)CC4)ccc3[nH]2)cc1`, the melting point is above 300 °C.

`CC(=O)c1ccc(OCC=C(C)CSCc2ccccc2)cc1`: the melting point was in the range of 75 to 76.5 °C.

In turn, `O=C(O)COc1cc(Cl)ccc1C(=O)NCCN1CCN(Cc2ccc(Cl)c(Cl)c2)CC1` gave a melting point of 118 to 120 °C.

In turn, `C=C(C)Cn1c(=O)n(C)c(=O)c2c[nH]nc21` yielded a melting point of 232 to 233 °C.

As to `Cc1cc2n(C)c(=O)c3cnc(Cl)cc3n2n1`, the melting point stood at 254 °C.

The molecule `Cc1nc2ccc(F)cc2c2c1ncn2C` yielded a melting point of 184 to 186 °C.

`CCN(CCOc1cccnc1F)CCN1C(=O)c2ccccc2C1=O` returned a melting point of 58 to 60 °C.

`CCC(CC)Nc1cc(C)nc2c1CCC(=O)N2c1c(C)cc(C)cc1C` registered a melting point of 124 to 126 °C.

Turning to `C=CCc1ccc(-c2nc3c(N[C@H]4[C@@H](C(N)=O)[C@@H]5C=C[C@H]4C5)c(Cl)cnc3[nH]2)c(OC)c1`, the melting point fell in the range of 123 to 126 °C.

`COc1ccc(NS(=O)(=O)N2CCn3c(c(C(N)=O)c(Cl)c3-c3ccccc3)C2)cc1`: the melting point fell in the range of 152 to 154 °C.

`Cc1c(C(=O)CS(=O)(=O)Cc2ccc(Cl)cc2)sc2ccc(Cl)cc12` returned a melting point of 204 to 206 °C.

`O=C(O)CN1C(=O)C(=CC2CC=CCC2)SC1=S` (centres undefined): the melting point was 191 to 193 °C.

`Cc1ccc(-c2ccn(C(C)C(=O)N(C)C)n2)cc1` (centres undefined) showed a melting point of 79 to 82 °C.

`COc1ccccc1C1(O)C(O)CC(C)(C)C2CN(C(=O)Cc3c[nH]c4ccccc34)CC21` (centres undefined): the melting point was 160 to 165 °C.

In the case of `CCCCCc1ccc2cc(Nc3ccc(O)cc3)ccc2c1`, the melting point is 134 to 135 °C.

For `O=C(Oc1ccc(N2c3ccccc3S(=O)(=O)c3ccccc32)cc1)c1ccccc1`, the melting point was in the range of 233 to 235 °C.

For the molecule `CCCCNC(=O)C(O[Si](C)(C)C(C)(C)C)c1ccccc1O` (centres undefined), the melting point lay in the range of 72 to 74 °C.

As for `CCOC(=O)/C(F)=C/c1ccc(N2C[C@H](CNC(C)=O)OC2=O)cc1`, the melting point lay within 161 to 163 °C.

Take `CN1CCC(O)(c2csc3ccccc23)CC1`: the melting point was 150 to 151 °C.

In the case of `CCc1cnc(CSc2cnc(NC(=O)c3ccccc3)s2)o1`, the melting point is 122 to 123 °C.

Take `CC(C)(C)C1(C)C(=O)N=C2c3ccccc3C(=O)N21` (centres undefined): the melting point fell in the range of 136 to 138 °C.

Take `C=C(c1ccc(OC)cc1)c1sc(C)nc1C`: the melting point was in the range of 139 to 140 °C.

In turn, `CCc1ccc(N=c2sc3ncccc3c(=O)n2CC)cc1` registered a melting point of 148 to 149 °C.

`COc1ccc(-c2nc(C(=O)N(C)C)c3c4ccc(Cl)cc4n(C)c3n2)cn1` yielded a melting point of 267 to 268 °C.

`CCCCc1nc2c(N)nc(C)c(C)c2n1CCCCNS(C)(=O)=O` came in with a melting point of 130 °C.

As to `CCCCCCCCCCCCNC1=NC(C)(C)N=C(NCc2ccc(S(N)(=O)=O)cc2)N1`, the melting point was 188 to 191 °C.

`Nc1ncc2c(n1)-c1ccc(Cl)cc1C(c1ccccc1Cl)=NC2` registered a melting point of 240 to 241 °C.

`CC#CCOc1cc(Nc2ccccc2)ncn1` gave a melting point of 159 °C.

Turning to `CC(C)(C)c1cc(CCc2ccccc2NC(=O)NCc2ccccn2)cc(C(C)(C)C)c1O`, the melting point lay within 189 to 190 °C.

With `CCOC(=O)C(=CNc1sc(Cl)cc1C(=O)OC)C(=O)OCC`, the melting point was 89.5 to 90.5 °C.

`Cc1cc(O)ccc1-c1nc2cc(O)cc(Br)c2o1` returned a melting point of 120 to 135 °C.

As for `CCOc1ccc2c(c1)n(CCN1CCOCC1)c(=O)n2S(=O)(=O)c1ccc(OC)cc1OC`, the melting point is 146 to 149 °C.

The molecule `CC(=O)Nc1cc2cc([N+](=O)[O-])ccc2oc1=O` had a melting point of 277 to 279 °C.

On to `O=C1Nc2ccc(Br)cc2/C1=C/c1ccc[nH]1`, for which the melting point lay within 267 to 268 °C.

Molecule `COc1c(F)ccc2ccc(Cl)nc12` returned a melting point of 85 to 86 °C.

Molecule `OC(CSc1ncnc2c1cnn2CC1CO1)CN1CCN(C(c2ccccc2)c2ccccc2)CC1` (centres undefined) displayed a melting point of 87 to 92 °C.

As to `O=C(O)Cc1cc(Cl)ccc1OCCCc1ccccc1`, the melting point was in the range of 95 to 96.5 °C.

Molecule `CC(C(=O)O)c1ccc(-c2cn3ccccc3n2)cc1` (centres undefined) registered a melting point of 244 to 246 °C.

Molecule `Fc1ccc(-c2nc(S)[nH]c2-c2ccncc2)cc1` showed a melting point of 386 to 388 °C.

The molecule `CS(=O)(=O)O[C@H](COC(=O)CCl)[C@H](NC(=O)OCc1ccccc1)C(N)=O` had a melting point of 140 to 142 °C.

Consider `O=c1c2cc(F)c(Cl)nc2n(-c2ccc(C(F)(F)F)cc2)c(=O)n1OCc1ccccc1`, for which the melting point lay in the range of 245 to 246 °C.

Molecule `Oc1c(Cl)cc(Cl)cc1Cc1cc(F)cc(Cc2cc(Cl)cc(Cl)c2O)c1O` registered a melting point of 168 °C.

The molecule `CN(C)c1ccc2c(c1)SC1=NCCN12` came in with a melting point of 144 °C.

As a reminder, the melting point is the temperature, or range, at which the solid turns liquid.
